These are literature values, as cited in patent EP4628546A1, “CYANINE DIMERS FOR PHOTOTHERMAL TREATMENT OF CANCER GUIDED BY FLUORESCENCE/PHOTOACOUSTIC IMAGING” (Centre National de la Recherche Scientifique, priority 2024, dated 2025).

Structures are written as SMILES.

For this data set the following is noted: IR 780 in EtOH, reference value.

As to `CCCN1/C(=C/C=C2\CCCC(/C=C/C3=[N+](CCC)c4ccccc4C3(C)C)=C2Cl)C(C)(C)c2ccccc21.[I-]` [IR 780], the “Φfluo,ref” value is reported as 0.08.
